Literature values, collected in EP2742940A1, “Salts of aza-bicyclo-di-aryl ethers for adminstration once daily, twice daily or thrice daily” (IP Gesellschaft für Management mbH, priority 2012, dated 2014).

Assays:
[1] = tested on: BRAF-MEK-ERK cascade; conditions: BRAF-MEK-ERK cascade assay, mean ± SEM, n=3
[2] = tested on: A375 cells; conditions: XTT, three days after compound addition
[3] = rat; for %F: p.o. (3 mg/kg)
[4] = tested on: P-Erk; conditions: A375 cells, P-Erk In-Cell-Western, 3 hrs treatment
[5] = at 65°C
[6] = tested on: DUSP6; conditions: A375 tumor bearing athymic-nude rats, single oral dose, at 12h and 24h (p=0.003 and p=0.006), two-way analysis of variance

IC50 [1] [nM]	GI50 [2] [nM]	%F [3] [%]	EC50 [4] [nM]	solubility in lactic acid [5] [mg/mL]	PK-parameters compared to Example 1 ([3]; one-way analysis of variance)	Structure (SMILES)	lowering levels of DUSP-6 in tumor [6]
2.1 ± 0.58	17.6	87	12.2	–	–	O=S(=O)(Nc1c(Nc2ccc(I)cc2F)c(F)c(F)c2ccoc12)C1(CC(O)CO)CC1 (racemic) [Example 1, N-(4,5-difluoro-6-((2-fluoro-4-iodophenyl)amino)benzofuran-7-yl)-1-(2,3-dihydroxypropyl)cyclopropane-1-sulfonamide]	–
–	–	–	–	> 600	–	Cc1cn(-c2cc(NC(=O)c3ccc(C)c(Nc4nccc(-c5cccnc5)n4)c3)cc(C(F)(F)F)c2)cn1 [nilotinib, 4-methyl-3-[[4-(3-pyridinyl)-2-pyrimidinyl]amino]-N-[5-(4-methyl-1 H-imidazol-1-yl)-3-(trifluoromethyl)phenyl] benzamide]	–
2 ± 0.25	13.4	132	6.4	–	improved PK-parameters	O=S(=O)(Nc1c(Nc2ccc(I)cc2F)c(F)c(F)c2ccoc12)C1(C[C@H](O)CO)CC1 [Example 1A, (S)-N-(4,5-difluoro-6-((2-fluoro-4-iodophenyl)amino)benzofuran-7-yl)-1-(2,3-dihydroxypropyl)cyclopropane-1-sulfonamide]	significantly more effective than Example- IB
